Experimental data published in US20220192984A1, “PHARMACEUTICAL COMPOSITIONS COMPRISING OTIC THERAPEUTIC AGENTS AND RELATED METHODS” (Frequency Therapeutics, Inc., priority 2018, published 2022).
“And” between values parts separate entries of the source, which are not always exact repeats. Equal values may be shown once.

Key:
[1] = target: ErbB3/HER3 (Homo sapiens, UniProt P21860); settings: read-out: HER 3 pKi or IC50 (converted); cited from earlier work
[2] = Perilymph Conc. listed for agents (Tables 14-25)
[3] = Stability of the filtered solution prior to lyophilization by HPLC (Example 2); type: physicochemical; settings: room temperature
Procedure: Stability Analysis: Prior to lyophilization, the stability of the filtered solution was analyzed by HPLC. The solution was held at room temperature for 4 hours, and samples of the solution was analyzed by HPLC during the period of time. […] Further, about 100% of sodium valproate remained in the solution.

[4] = Stability of reconstituted higher concentration formulation at 2-8° C. for 8 hours (Table D); type: physicochemical; settings: Post Lyo
[5] = Order of compounding of the test composition (Example 11, Table 26); type: physicochemical; settings: organic solvents
Procedure: The first step in the sequence of compounding was to add pre-weighed solid sodium valproate to the stock P407 aqueous solution over ice. The temperature of P407 solution is important to keep the viscosity of this thermoreversible polymer in a liquid free-flowing state. After a clear solution was obtained, the CHIR99021-DMSO stock solution was added slowly to the NaVPA-P407-water solution. […] CHIR99021 also begins to degrade after extended periods of time in solution.

[6] = Stability of the non-lyophilized test composition under refrigeration (Example 13); type: physicochemical; settings: freshly compounded test composition, refrigerator, 0 to 120 hours
[7] = Stability of the reconstituted test composition in refrigerated syringes (Example 13); type: physicochemical; settings: for time assay levels remained stable with initial levels: reconstituted test composition in polypropylene syringes, refrigerated
[8] = Storage stability of the lyophilized test composition (Table 27); type: physicochemical
Procedure: The lyophilized composition was stored in a glass container with rubber closure and crimp seal under refrigeration for 6 months and at −20° C. for 24 months.

[9] = test system: Lgr5+ cells; assay: Lgr5+ Assay (Lgr5+ cell assay in vitro); type: cell-based
[10] = Table 18; cited from earlier work
[11] = test system: MAOs A and B; settings: Table 18, one value, isoform not told; read-out: Select MAOs A and B; cited from earlier work
[12] = target: GSK-3 alpha (Homo sapiens, UniProt P49840); settings: cited from earlier work
[13] = target: GSK-3 beta (Homo sapiens, UniProt P49841); settings: cited from earlier work
[14] = target: LSD1 (Homo sapiens, UniProt O60341); settings: Table 18; read-out: Literat. Cell EC50; cited from earlier work
[15] = target: T1, KDM1b (Homo sapiens, UniProt Q8NB78); settings: Table 18; read-out: Select KDM1b; cited from earlier work
T1 sequence (Q8NB78 1-822): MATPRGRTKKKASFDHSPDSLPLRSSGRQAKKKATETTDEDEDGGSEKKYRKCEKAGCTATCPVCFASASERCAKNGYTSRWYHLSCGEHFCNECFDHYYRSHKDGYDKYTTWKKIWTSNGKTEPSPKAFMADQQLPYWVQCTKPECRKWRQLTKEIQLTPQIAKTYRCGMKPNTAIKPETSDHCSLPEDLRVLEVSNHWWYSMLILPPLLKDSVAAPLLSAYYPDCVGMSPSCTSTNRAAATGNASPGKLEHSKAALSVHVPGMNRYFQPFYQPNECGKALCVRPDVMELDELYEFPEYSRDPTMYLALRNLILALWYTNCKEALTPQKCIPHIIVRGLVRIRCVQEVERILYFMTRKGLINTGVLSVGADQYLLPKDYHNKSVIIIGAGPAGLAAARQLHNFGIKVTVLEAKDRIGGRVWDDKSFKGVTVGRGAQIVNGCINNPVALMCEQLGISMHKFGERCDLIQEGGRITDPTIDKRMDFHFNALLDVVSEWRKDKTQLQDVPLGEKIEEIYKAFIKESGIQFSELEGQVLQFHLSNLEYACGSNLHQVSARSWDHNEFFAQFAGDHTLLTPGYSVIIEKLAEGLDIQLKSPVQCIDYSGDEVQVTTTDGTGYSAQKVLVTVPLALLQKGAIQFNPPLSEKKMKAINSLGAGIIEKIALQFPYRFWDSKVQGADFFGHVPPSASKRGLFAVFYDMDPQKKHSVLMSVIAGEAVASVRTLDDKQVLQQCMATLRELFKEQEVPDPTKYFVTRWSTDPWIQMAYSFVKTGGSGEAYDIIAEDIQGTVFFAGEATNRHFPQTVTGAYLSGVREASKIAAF

[16] = target: HER4 (Homo sapiens, UniProt Q15303); settings: cited from earlier work
[17] = type: physicochemical; settings: lyophilized composition (Dosage 1) stored at 5° C., room temperature or 40° C. under 75% relative humidity in the dark
Procedure: Stability Analysis: The stability of the lyophilized composition formulation (Dosage 1) was analyzed upon storage at 5° C., room temperature, or 40° C. under 75% relative humidity in the dark Samples were taken at various time points, reconstituted as described in Example 4 and samples analyzed by HPLC. […] About 100% of sodium valproate remained.
Long-term stability of the lyophilized composition formulation (Dosage 1) was tested. The composition was held at room temperature (ambient) in the dark for two months and reconstituted as described in Example 4 below.

[18] = Reconstitution time of lyophilized compositions (Tables E, 28, 35); type: physicochemical
Procedure: Diluent 1, 0.85 mL+lyophilized cake. […] Gentle tapping on the exterior of the vessel to help the cake dissolve in the Diluent may be required while keeping it in fridge (or ice bath). To avoid degradation of the composition, minimize stirring and/or vortexing.
Diluent 1, 0.95 mL+Placebo cake: Using a syringe, add the Diluent to the Placebo cake, and rest in a fridge or ice bath (2-8° C.) for 60 minutes or until clear solution is formed. Gentle tapping on the exterior of the vessel to help the cake dissolve in the Diluent may be required while keeping it in fridge (or ice bath). To avoid degradation of the composition, minimize stirring and/or vortexing.
Powder P407 (i.e. non-lyophilized) can be obtained from BASF.
Reconstitution of lyophilized P407 (Placebo) and powder P407 was done using 850 μL Diluent (see above for example preparations of a Diluent) in a vial.
Therefore, to probe the effect of salts other than sodium valproate on reconstitution time, a poloxamer solution at 16.15% concentration either alone or including a salt (e.g. an inorganic salt or organic acid salt) at a concentration of 533.25 mM, was lyophilized. The lyophilized material was then reconstituted using Diluent for reconstitution (6.4% DMSO by wt. % in water) or with water.
Building on the results of Examples 14 to 16, further lyophilized compositions were manufactured and had their reconstitution times evaluated. […] The further lyophilized compositions were made in accordance with Example 10, and reconstituted in accordance with Example 12.

[19] = test system: HDAC; settings: Mechanism HDAC Inhib 1, 2, 3, 8; cited from earlier work
[20] = Table 14, listed concentration, no test described
[21] = lyophilized composition GMP lot B17030018, Refrigerated, 1 month
[22] = lyophilized composition GMP lot B17030018, Refrigerated, 2 months
[23] = lyophilized composition GMP lot B17030018, Refrigerated, 3 months
[24] = lyophilized composition GMP lot B17030018, Refrigerated, 6 months
[25] = lyophilized composition GMP lot B17030018, Release, 0 month
[26] = lyophilized composition GMP lot B17030018, −20, 1 month
[27] = lyophilized composition GMP lot B17030018, −20, 2 months
[28] = lyophilized composition GMP lot B17030018, −20, 3 months
[29] = lyophilized composition GMP lot B17030018, −20, 6 months
[30] = lyophilized composition GMP lot B17030018, −20, 9 months
[31] = lyophilized composition GMP lot B17030018, −20, 12 months
[32] = lyophilized composition GMP lot B17030018, −20, 18 months
[33] = lyophilized composition GMP lot B17030018, −20, 24 months

Chain of GSK-3 beta (P49841 whole entry): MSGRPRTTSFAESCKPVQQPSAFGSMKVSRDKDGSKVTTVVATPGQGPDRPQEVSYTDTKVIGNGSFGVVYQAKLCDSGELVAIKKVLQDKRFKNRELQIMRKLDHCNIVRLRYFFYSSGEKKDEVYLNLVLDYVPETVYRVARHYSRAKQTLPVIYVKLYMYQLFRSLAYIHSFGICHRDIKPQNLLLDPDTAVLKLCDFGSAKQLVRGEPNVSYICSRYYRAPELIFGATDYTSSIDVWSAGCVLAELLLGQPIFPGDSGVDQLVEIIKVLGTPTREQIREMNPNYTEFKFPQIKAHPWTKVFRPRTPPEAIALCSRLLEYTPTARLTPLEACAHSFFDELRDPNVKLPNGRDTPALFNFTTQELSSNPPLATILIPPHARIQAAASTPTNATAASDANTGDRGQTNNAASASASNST
Chain of ErbB3/HER3 (P21860 20-1342): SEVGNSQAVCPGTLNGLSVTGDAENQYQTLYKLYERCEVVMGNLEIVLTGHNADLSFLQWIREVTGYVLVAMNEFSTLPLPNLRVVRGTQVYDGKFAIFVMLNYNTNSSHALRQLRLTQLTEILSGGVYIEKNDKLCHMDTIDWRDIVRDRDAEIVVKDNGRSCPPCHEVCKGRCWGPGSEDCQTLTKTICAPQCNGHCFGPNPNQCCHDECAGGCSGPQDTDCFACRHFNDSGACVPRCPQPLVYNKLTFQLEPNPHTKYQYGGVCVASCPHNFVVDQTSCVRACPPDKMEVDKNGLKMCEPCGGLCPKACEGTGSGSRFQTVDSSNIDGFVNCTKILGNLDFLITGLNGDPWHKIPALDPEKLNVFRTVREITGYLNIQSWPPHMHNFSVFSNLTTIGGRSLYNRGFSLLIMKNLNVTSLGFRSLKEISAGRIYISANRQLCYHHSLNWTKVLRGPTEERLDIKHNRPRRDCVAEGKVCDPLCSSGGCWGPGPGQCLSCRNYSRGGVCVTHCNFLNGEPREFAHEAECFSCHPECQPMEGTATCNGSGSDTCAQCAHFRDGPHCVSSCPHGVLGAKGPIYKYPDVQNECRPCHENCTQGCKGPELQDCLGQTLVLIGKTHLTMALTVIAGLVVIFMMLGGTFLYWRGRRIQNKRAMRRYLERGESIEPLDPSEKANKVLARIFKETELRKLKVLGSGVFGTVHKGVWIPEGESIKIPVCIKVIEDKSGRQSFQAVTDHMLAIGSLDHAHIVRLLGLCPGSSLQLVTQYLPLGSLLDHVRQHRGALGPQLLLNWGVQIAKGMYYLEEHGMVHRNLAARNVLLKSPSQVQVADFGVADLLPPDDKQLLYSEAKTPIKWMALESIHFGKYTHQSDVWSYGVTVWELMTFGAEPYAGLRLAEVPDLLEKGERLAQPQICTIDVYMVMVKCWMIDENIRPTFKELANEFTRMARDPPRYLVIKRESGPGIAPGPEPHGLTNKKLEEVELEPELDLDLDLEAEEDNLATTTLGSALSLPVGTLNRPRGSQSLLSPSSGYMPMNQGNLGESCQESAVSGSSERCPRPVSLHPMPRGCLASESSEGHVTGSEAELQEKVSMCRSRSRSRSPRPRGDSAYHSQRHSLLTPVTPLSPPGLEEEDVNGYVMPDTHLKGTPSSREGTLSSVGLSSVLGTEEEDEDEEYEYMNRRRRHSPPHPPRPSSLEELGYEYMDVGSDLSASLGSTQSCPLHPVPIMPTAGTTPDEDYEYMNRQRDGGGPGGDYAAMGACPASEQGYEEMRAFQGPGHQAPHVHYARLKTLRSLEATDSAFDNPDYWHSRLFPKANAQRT
Chain of GSK-3 alpha (P49840 whole entry): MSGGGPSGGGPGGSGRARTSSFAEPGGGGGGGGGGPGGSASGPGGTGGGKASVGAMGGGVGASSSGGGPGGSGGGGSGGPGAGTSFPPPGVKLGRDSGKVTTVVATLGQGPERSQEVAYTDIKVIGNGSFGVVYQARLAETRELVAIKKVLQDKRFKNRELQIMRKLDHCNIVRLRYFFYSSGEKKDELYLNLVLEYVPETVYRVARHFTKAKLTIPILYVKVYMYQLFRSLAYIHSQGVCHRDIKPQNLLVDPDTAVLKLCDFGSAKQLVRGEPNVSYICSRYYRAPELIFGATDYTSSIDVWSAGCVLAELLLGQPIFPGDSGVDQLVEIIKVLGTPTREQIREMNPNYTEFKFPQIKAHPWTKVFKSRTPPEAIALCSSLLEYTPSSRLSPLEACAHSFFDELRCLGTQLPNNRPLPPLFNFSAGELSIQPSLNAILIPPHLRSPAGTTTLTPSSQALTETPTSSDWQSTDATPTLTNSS
Chain of HER4 (Q15303 26-1308, species assumed): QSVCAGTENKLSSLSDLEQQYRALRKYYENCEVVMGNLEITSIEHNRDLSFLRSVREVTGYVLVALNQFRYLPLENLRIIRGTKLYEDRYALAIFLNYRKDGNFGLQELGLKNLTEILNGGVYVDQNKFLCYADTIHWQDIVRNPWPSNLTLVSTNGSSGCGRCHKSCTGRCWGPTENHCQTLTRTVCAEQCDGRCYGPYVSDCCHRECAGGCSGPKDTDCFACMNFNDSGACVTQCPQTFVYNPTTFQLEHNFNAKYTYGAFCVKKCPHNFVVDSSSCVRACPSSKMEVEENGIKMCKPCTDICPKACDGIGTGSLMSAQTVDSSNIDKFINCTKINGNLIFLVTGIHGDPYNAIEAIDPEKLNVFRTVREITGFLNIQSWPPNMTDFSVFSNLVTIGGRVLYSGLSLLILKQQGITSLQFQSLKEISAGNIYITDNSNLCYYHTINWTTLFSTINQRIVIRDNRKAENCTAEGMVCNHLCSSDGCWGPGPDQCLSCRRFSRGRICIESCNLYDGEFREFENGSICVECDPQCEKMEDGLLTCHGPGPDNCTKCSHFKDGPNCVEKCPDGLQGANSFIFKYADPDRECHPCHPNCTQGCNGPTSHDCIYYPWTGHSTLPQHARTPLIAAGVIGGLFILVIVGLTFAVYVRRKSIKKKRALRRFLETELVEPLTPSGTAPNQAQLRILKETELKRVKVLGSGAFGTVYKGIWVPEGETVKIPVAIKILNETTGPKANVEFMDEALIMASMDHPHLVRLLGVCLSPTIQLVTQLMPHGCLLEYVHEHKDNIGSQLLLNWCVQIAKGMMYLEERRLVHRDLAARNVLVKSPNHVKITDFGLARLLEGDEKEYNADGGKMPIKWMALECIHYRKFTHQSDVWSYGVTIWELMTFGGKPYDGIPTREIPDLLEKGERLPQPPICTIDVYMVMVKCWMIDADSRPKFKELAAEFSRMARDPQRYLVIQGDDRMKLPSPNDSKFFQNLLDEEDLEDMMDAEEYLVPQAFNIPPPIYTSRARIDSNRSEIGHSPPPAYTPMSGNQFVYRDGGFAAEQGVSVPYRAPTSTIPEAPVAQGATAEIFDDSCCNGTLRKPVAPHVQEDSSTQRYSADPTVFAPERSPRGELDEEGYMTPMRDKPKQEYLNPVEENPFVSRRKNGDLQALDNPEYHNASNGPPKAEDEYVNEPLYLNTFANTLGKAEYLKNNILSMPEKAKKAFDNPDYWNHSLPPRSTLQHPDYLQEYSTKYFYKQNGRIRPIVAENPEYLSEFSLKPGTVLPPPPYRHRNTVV

## CN1CCN(Cc2ccc(NC(=O)Cc3ccc(Oc4cc(NC(=O)C5CC5)ncn4)cc3)cc2C(F)(F)F)CC1 [WS6]
[1]
  IC50: 280 nM

## Cc1cnc(-c2cnc(NCCNc3ccc(C#N)cn3)nc2-c2ccc(Cl)cc2Cl)[nH]1 [CHIR99021]
[2]; [20]
  Perilymph Conc: 2 to 6 µM
[3]; over 4 hours
  total impurities formed for CHIR99021: about 4.6%
[4]
  % Rel Error: 2.2% and 2.4%
  Conc.: 3.47 mg/mL and 3.48 mg/mL
[4]; 24 Hrs, refrigerator 2-8° C.
  % Rel Error: −1.3% and 0.6%
  Conc.: 3.36 mg/mL and 3.42 mg/mL
[5]
  solubility of CHIR99021: very limited in almost all organic solvents except polar solvents, such as DMSO
[6]
  assay level over time: decreased from its initial level over time
[7]
  time assay levels remained stable with initial levels: 6 h
[7]; reconstituted test composition in refrigerated syringes, sometime between 8 and 24 hours
  decrease of assay level from its initial level: 37%
[8]; [21]
  Assay (drug content): 105%
[8]; [22]
  Assay (drug content): 105%
[8]; [23]
  Assay (drug content): 104%
[8]; [24]
  Assay (drug content): 102%
[8]; [25]
  Assay (drug content): 103%
[8]; [26]
  Assay (drug content): 107%
[8]; [27]
  Assay (drug content): 107%
[8]; [28]
  Assay (drug content): 104%
[8]; [29]
  Assay (drug content): 103%
[8]; [30]
  Assay (drug content): 102%
[8]; [31]
  Assay (drug content): 99%
[8]; [32]
  Assay (drug content): 100%
[8]; [33]
  Assay (drug content): 100%

## N[C@@H]1C[C@H]1c1ccccc1 [TCP]
[9]; Table 18, concentration range or its upper end
  Lgr5+ Assay: 0.1 to 20 µM
[2]; Table 18, range or its upper end
  Perilymph Conc: 0.1 to 20 µM
[10]
  Human Plasma Conc Cmax: 30 to 200 ng/mL
[11]
  IC50: 1000 nM

## O=C1NC(=O)C(c2cnc3ccccn23)=C1c1cn2c3c(cc(F)cc13)CN(C(=O)N1CCCCC1)CC2 [LY2090314, 3-(9-fluoro-2-(piperidine-1-carbonyl)-1,2,3,4-tetrahydro-[1,4]diazepino[6,7,1-hi]indol-7-yl)-4-(imidazo[1,2-a]pyridin-3-yl)-1H-pyrrole-2,5-dione]
[9]; Table 14
  Lgr5+ Assay: 0.005 to 0.02 µM
[2]; [20]
  Perilymph Conc: 0.005 to 0.02 µM
[12]
  GSK-3 alpha: 2.1 nM
[13]
  GSK-3 beta: 0.9 nM

## O=C(O)c1ccc(CN2CCC(CN[C@@H]3C[C@H]3c3ccccc3)CC2)cc1 [GSK-2879552]
[9]; Table 18, lower end of concentration range
  Lgr5+ Assay: ≥ 40 nM-
[2]; Table 18, lower end of range
  Perilymph Conc: ≥ 40 nM-
[2]; Table 18, upper end of range
  Perilymph Conc: ≤ 30 µM
[10]
  Human Plasma Conc: 1 to 100 nM
[14]
  EC50: 2 to 240 nM
[15]
  IC50: 20 µM

## CNC(=O)CN1CCC(Oc2cc3c(Nc4cccc(Cl)c4F)ncnc3cc2OC)CC1 [Sapitinib/AZD8931/]
[16]
  IC50: 3 nM

## CCCC(CCC)C(=O)O [Sodium Valproate, Sodium 2-propylpentanoate]
[9]; HDAC inhibitor table, upper end of the wrapped range 100 uM-4 mM
  Lgr5+ Assay: ≤ 4000 µM
[2]; HDAC inhibitor table, upper end of the wrapped range 100 uM-4 mM, no test described
  Perilymph Conc: ≤ 4000 µM
[3]; 4 hours
  sodium valproate remained in the solution: about 100%
[17]
  sodium valproate remained: About 100%
[4]
  % Rel Error: 7.3% and 5.5%
  Conc.: 102.9 mg/mL and 101.1 mg/mL
[4]; 24 Hrs, refrigerator 2-8° C.
  % Rel Error: 5.3% and 7.5%
  Conc.: 101.0 mg/mL and 103.1 mg/mL
[6]
  assay level over time: remained constant over this time
[7]
  time assay levels remained stable with initial levels: 6 h
[7]; reconstituted test composition in refrigerated syringes, up to 24 hours
  assay level: remained constant over this time
[8]; [21]
  Assay (drug content): 100%
[8]; [22]
  Assay (drug content): 100%
[8]; [23]
  Assay (drug content): 100%
[8]; [24]
  Assay (drug content): 99%
[8]; [25]
  Assay (drug content): 100%
[8]; [26]
  Assay (drug content): 101%
[8]; [27]
  Assay (drug content): 100%
[8]; [28]
  Assay (drug content): 100%
[8]; [29]
  Assay (drug content): 100%
[8]; [30]
  Assay (drug content): 99%
[8]; [31]
  Assay (drug content): 99%
[8]; [32]
  Assay (drug content): 101%
[8]; [33]
  Assay (drug content): 98%
[18]; lyophilized 16.15% P407 with salt at 533.25 mM, reconstituted with Diluent ([…] DMSO in water)
  Reconstitution time (minutes) water + DMSO: 25 min
[18]; lyophilized 16.15% P407 with salt at 533.25 mM, reconstituted with water
  Reconstitution time (minutes) with water: 20 min
[18]; poloxamer 16.15%, salt 533.25 mM
  reconstitution time of lyophilized poloxamer with added organic acid salt: 420 min
[19]
  HDAC Potenc: 39 to 161 µM
